Measured values reported in publication PMC11676896, “Protective Action of Cannabidiol on Tiamulin Toxicity in Humans—In Vitro Study” (International Journal of Molecular Sciences, 2024).
Where a name gives a salt, the structure may show the parent alone.

How the values were obtained:
HEK 293 cells = test: LDH leakage assay (cell membrane integrity); assay type: cell-based, human
Description: (§1) The cytotoxic potential of the veterinary drug and its mixtures with cannabidiol at two non-toxic concentrations: 1.56 and 3.15 µg/mL, on the human SH-SY5Y, HepG2 and HEK 293 cell lines was assessed by decreased viability of the cells within five biochemical endpoints: mitochondrial activity and lysosomal activity (MTT assays, reducing the tetrazolium dye MTT 3-(4,5-dimethylthiazol-2-yl)-2,5-diphenyltetrazolium bromide and neutral red uptake (NRU) assays), total protein content (TPC assay), cellular membrane integrity (leakage lactate dehydrogenase (LDH) assay) and DNA synthesis (the bromodeoxyuridine/5-bromo-2′-deoxyuridine incorporation into the DNA cells (BrdU) assay) after 72 h exposition. Data obtained from the measurement of the optical density in these assays were transformed to percentages in relation to the negative control group (0.1% DMSO in medium), considered to be 100% for the MTT, NRU, TPC and BrdU assays and 0% for the LDH assay. 1% Trition-X 100 solution in medium was used as the positive controls, (Figure 3).
(§2) The human neuroblastoma (SH-SY5H), hepatoma (HepG2) and kidney cells (HEK 293) cells were purchased from the American Type Culture Collection: ATCCCRL-2266,ATCC HB-8065 and ATCC CRL-1573, respectively. These cells were cultured in Minimum Essential Medium Eagle (MEME) (ATCC). The media were supplemented with 10% FBS, 1% L-glutamine (and 1% antibiotic solution (P4333 Sigma). The cells were maintained in 75 cm^2 cell culture flasks (NUNC) in a humidified incubator at 37 °C in an atmosphere of 5% CO2. The medium was refreshed every two or three days, and the cells were subcultured by 0.25% trypsin–0.02% EDTA after reaching 70–80% confluence. Single cell suspensions were prepared and adjusted to a density of 2 × 10^5 cell/mL^−1 (SH-SY5H), 1 × 10^5 cell/mL^−1 (HepG2) and 1 × 10^5 cell/mL^−1 (HEK-293). The cell suspension was transferred to 96-well plates (100 µL/well) or Lab-Tek chamber slides (8 wells) (Nunc) for staining and incubated for 24 h before the exposure to the studied compounds. Stock solutions of tiamulin fumarate and cannabidiol were prepared in DMSO and diluted with culture medium to obtain a concentration range from 1.56 to 200 µg/mL and 1.56 or 3.156 µg/mL, respectively. The selection of tiamulin concentrations was based on data from the literature and pilot studies. The final concentration of DMSO was 0.1% in the medium. The same final concentrations of the solvent and the 1% Trition-X 100 solution were used as the negative and positive controls, respectively. A total of 500 µM hydrogen peroxide (H2O2) in was used as the positive control in the DCFH assay. […] As a negative control, cultured cells were grown in the absence of studied compounds. Each concentration was tested in six replicates in three independent experiments. Cytotoxicity was assessed after 72 h of exposure of the cells to the compounds. The medium was not changed during the incubation time.
(§3) The integrity of the plasma membrane was assessed through the test of lactate dehydrogenase (LDH) release, which was monitored using the commercially available Cytotoxicity Detection Kit (LDH) (Roche Diagnostics, Warsaw, Poland). The medium (100 µL/well) without cells was transferred into the corresponding wells of an optically clear 96-well flat bottom microplate, and 100 µL reaction mixture was added to each well. Then, the plates were incubated for 30 min at room temperature in darkness. After that time, 50 µL/well of 1 M HCl was added to stop the reaction. The absorbance was measured at 492 nm in a Synergy 2 Multi-Mode Microplate Reader (BiTek® Instruments Inc., Winooski, VT, USA) using a blank as a reference.
(§4) This study was performed in three independent experiments. The obtained results are presented as mean values ± SD (standard deviation). […]

SH-SY5Y cells = test: LDH leakage assay (cell membrane integrity); assay type: cell-based, human; conditions: 72 h
Description: as §1, §2, §3, §4

HepG2 cells = test: LDH leakage assay (cell membrane integrity); assay type: cell-based, human; conditions: HepG2, 72 h
Description: as §1, §2, §3, §4

CYP3A4 = tested on: CYP3A4; parameters: method as in PMID 15013817; conditions: cited from earlier work
[1] = Homo sapiens, read-out: inhibited concentration (IC50), LDH

C=C[C@]1(C)C[C@@H](OC(=O)CSCCN(CC)CC)[C@]2(C)[C@H](C)CC[C@]3(CCC(=O)[C@H]32)[C@@H](C)[C@@H]1O [T, tiamulin fumarate]
tiamulin concentration that caused disintegration of the cell membrane (HEK 293 cells; HEK-293, 72 h): 25 µg/mL
IC50 (HEK 293 cells; Homo sapiens, HEK293, 72 h, read-out: inhibited concentration (IC50), LDH): 76.9 ± 2.3 µg/mL
tiamulin concentration that caused disintegration of the cell membrane (SH-SY5Y cells): 25 µg/mL
IC50 (SH-SY5Y cells; [1]): > 200 µg/mL
tiamulin concentration that caused disintegration of the cell membrane (HepG2 cells): 25 µg/mL
IC50 (HepG2 cells; [1]): 39.5 ± 1.7 µg/mL
effect on CYP3A4 (CYP3A4): strongly blocks CYP3A4
